Laboratory results published in PubChem BioAssay AID1259407 (Chemical Carcinogenesis Research Information System (CCRIS), 2018).
Activity calls are given as the source filed them. How the calls were made is not given here.

Tested on: CCRIS mutagenicity, Ames/micronucleus/aberration tests
Test: CCRIS mutagenicity studies
[1] = Test System: AMES SALMONELLA TYPHIMURIUM, Strain/Indicator: TA97, Metabolic Activation: NONE, Method: PREINCUBATION
[2] = Test System: AMES SALMONELLA TYPHIMURIUM, Strain/Indicator: TA98, Metabolic Activation: NONE, Method: PREINCUBATION
[3] = Test System: AMES SALMONELLA TYPHIMURIUM, Strain/Indicator: TA100, Metabolic Activation: NONE, Method: PREINCUBATION
[4] = Test System: AMES SALMONELLA TYPHIMURIUM, Strain/Indicator: TA1535, Metabolic Activation: NONE, Method: PREINCUBATION
[5] = Test System: AMES SALMONELLA TYPHIMURIUM, Strain/Indicator: TA98, Metabolic Activation: HAMSTER, LIVER, S-9, AROCLOR 1254 (10%), Method: PREINCUBATION
[6] = Test System: AMES SALMONELLA TYPHIMURIUM, Strain/Indicator: TA98, Metabolic Activation: RAT, LIVER, S-9, AROCLOR 1254 (10%), Method: PREINCUBATION
[7] = Test System: AMES SALMONELLA TYPHIMURIUM, Strain/Indicator: TA100, Metabolic Activation: HAMSTER, LIVER, S-9, AROCLOR 1254 (10%), Method: PREINCUBATION
[8] = Test System: AMES SALMONELLA TYPHIMURIUM, Strain/Indicator: TA1535, Metabolic Activation: HAMSTER, LIVER, S-9, AROCLOR 1254 (10%), Method: PREINCUBATION
[9] = Test System: AMES SALMONELLA TYPHIMURIUM, Strain/Indicator: TA1535, Metabolic Activation: RAT, LIVER, S-9, AROCLOR 1254 (10%), Method: PREINCUBATION
[10] = Test System: MOUSE LYMPHOMA, Strain/Indicator: L5178Y (TK+/TK-), Metabolic Activation: NONE, Method: SUSPENSION/PLATE

Which results are given for `CCCCCCCCCCCCCCCCN`?
mutagenic call (Test System: AMES SALMONELLA TYPHIMURIUM, Strain/Indicator: TA97, Metabolic Activation: HAMSTER, LIVER, S-9, AROCLOR 1254 (10 OR 30%), Method: PREINCUBATION): inactive; negative; mutagenic call [1]: inactive; negative; mutagenic call (Test System: AMES SALMONELLA TYPHIMURIUM, Strain/Indicator: TA97, Metabolic Activation: RAT, LIVER, S-9, AROCLOR 1254 (10 OR 30%), Method: PREINCUBATION): inactive; negative; mutagenic call (Test System: AMES SALMONELLA TYPHIMURIUM, Strain/Indicator: TA98, Metabolic Activation: HAMSTER, LIVER, S-9, AROCLOR 1254 (10 OR 30%), Method: PREINCUBATION): inactive; negative; mutagenic call [2]: inactive; negative; mutagenic call (Test System: AMES SALMONELLA TYPHIMURIUM, Strain/Indicator: TA98, Metabolic Activation: RAT, LIVER, S-9, AROCLOR 1254 (10 OR 30%), Method: PREINCUBATION): inactive; negative; mutagenic call (Test System: AMES SALMONELLA TYPHIMURIUM, Strain/Indicator: TA100, Metabolic Activation: HAMSTER, LIVER, S-9, AROCLOR 1254 (10 OR 30%), Method: PREINCUBATION): inactive; negative; mutagenic call [3]: inactive; negative; mutagenic call (Test System: AMES SALMONELLA TYPHIMURIUM, Strain/Indicator: TA100, Metabolic Activation: RAT, LIVER, S-9, AROCLOR 1254 (10 OR 30%), Method: PREINCUBATION): inactive; negative; mutagenic call (Test System: AMES SALMONELLA TYPHIMURIUM, Strain/Indicator: TA1535, Metabolic Activation: HAMSTER, LIVER, S-9, AROCLOR 1254 (10 OR 30%), Method: PREINCUBATION): inactive; negative; mutagenic call [4]: inactive; negative; mutagenic call (Test System: AMES SALMONELLA TYPHIMURIUM, Strain/Indicator: TA1535, Metabolic Activation: RAT, LIVER, S-9, AROCLOR 1254 (10 OR 30%), Method: PREINCUBATION): inactive; negative

Which mutagenic call (Test System: UDS HUMAN MAMMARY EPITHELIAL CELLS, Strain/Indicator: THY INCORP, Metabolic Activation: NONE, Method: AUTORADIOGRAPHY) does the source give for `N#CC1CO1` (centres undefined) here?
Its mutagenic call is “active; positive”.

What about the mutagenic call (Test System: UDS PRIMARY RAT HEPATOCYTES, Strain/Indicator: THY INCORP, Metabolic Activation: NONE, Method: AUTORADIOGRAPHY) of the same compound?
The mutagenic call was “inactive; negative”.

For `CC(=O)Oc1c(OC(C)=O)c2c([N+](=O)[O-])ccc3c4ccccc4c4cccc1c4c23`, which mutagenic call (Test System: AMES SALMONELLA TYPHIMURIUM, Strain/Indicator: TA98, Metabolic Activation: NONE', Method: STANDARD PLATE) is on record?
The mutagenic call was “active; positive”.

And the mutagenic call (Test System: AMES SALMONELLA TYPHIMURIUM, Strain/Indicator: TA100, Metabolic Activation: NONE, Method: STANDARD PLATE)?
Its mutagenic call is “active; positive”.

For `Cc1c(N)cccc1N=[N+]([O-])c1cccc(N)c1C`, which mutagenic call [2] is on record?
The mutagenic call was “inactive; negative”.

And the mutagenic call (Test System: AMES SALMONELLA TYPHIMURIUM, Strain/Indicator: TA98, Metabolic Activation: RAT, LIVER, S-9, PHENOBARBITAL AND 5,6-BENZOFLAVONE, Method: PREINCUBATION)?
Its mutagenic call is “active; positive”.

What about the mutagenic call [3] of the same compound?
The mutagenic call was “inactive; negative”.

And the mutagenic call (Test System: AMES SALMONELLA TYPHIMURIUM, Strain/Indicator: TA100, Metabolic Activation: RAT, LIVER, S-9, PHENOBARBITAL AND 5,6-BENZOFLAVONE, Method: PREINCUBATION)?
Its mutagenic call is “inactive; negative”.

For `CC(O)c1ccccc1` (centres undefined), which mutagenic call [5] is on record?
The mutagenic call was “inactive; negative”.

And the mutagenic call (Test System: AMES SALMONELLA TYPHIMURIUM, Strain/Indicator: TA98, Metabolic Activation: HAMSTER, LIVER, S-9, AROCLOR 1254, Method: PREINCUBATION)?
The mutagenic call was “inactive; negative”.

What about the mutagenic call [2] of the same compound?
Its mutagenic call is “inactive; negative”.

What about the mutagenic call [6] of the same compound?
Its mutagenic call is “inactive; negative”.

And the mutagenic call (Test System: AMES SALMONELLA TYPHIMURIUM, Strain/Indicator: TA98, Metabolic Activation: RAT, LIVER, S-9, AROCLOR 1254, Method: PREINCUBATION)?
The mutagenic call was “inactive; negative”.

What about the mutagenic call [7] of the same compound?
The mutagenic call was “inactive; negative”.

What about the mutagenic call (Test System: AMES SALMONELLA TYPHIMURIUM, Strain/Indicator: TA100, Metabolic Activation: HAMSTER, LIVER, S-9, AROCLOR 1254, Method: PREINCUBATION) of the same compound?
The mutagenic call was “inactive; negative”.

What about the mutagenic call [3] of the same compound?
The mutagenic call was “inactive; negative”.

What about the mutagenic call (Test System: AMES SALMONELLA TYPHIMURIUM, Strain/Indicator: TA100, Metabolic Activation: RAT, LIVER, S-9, AROCLOR 1254 (10%), Method: PREINCUBATION) of the same compound?
The mutagenic call was “inactive; negative”.

What about the mutagenic call (Test System: AMES SALMONELLA TYPHIMURIUM, Strain/Indicator: TA100, Metabolic Activation: RAT, LIVER, S-9, AROCLOR 1254, Method: PREINCUBATION) of the same compound?
Its mutagenic call is “inactive; negative”.

And the mutagenic call [8]?
The mutagenic call was “inactive; negative”.

And the mutagenic call (Test System: AMES SALMONELLA TYPHIMURIUM, Strain/Indicator: TA1535, Metabolic Activation: HAMSTER, LIVER, S-9, AROCLOR 1254, Method: PREINCUBATION)?
The mutagenic call was “inactive; negative”.

What about the mutagenic call [4] of the same compound?
Its mutagenic call is “inactive; negative”.

And the mutagenic call [9]?
Its mutagenic call is “inactive; negative”.

And the mutagenic call (Test System: AMES SALMONELLA TYPHIMURIUM, Strain/Indicator: TA1535, Metabolic Activation: RAT, LIVER, S-9, AROCLOR 1254, Method: PREINCUBATION)?
Its mutagenic call is “inactive; negative”.

What about the mutagenic call (Test System: AMES SALMONELLA TYPHIMURIUM, Strain/Indicator: TA1537, Metabolic Activation: HAMSTER, LIVER, S-9, AROCLOR 1254 (10%), Method: PREINCUBATION) of the same compound?
Its mutagenic call is “inactive; negative”.

And the mutagenic call (Test System: AMES SALMONELLA TYPHIMURIUM, Strain/Indicator: TA1537, Metabolic Activation: HAMSTER, LIVER, S-9, AROCLOR 1254, Method: PREINCUBATION)?
The mutagenic call was “inactive; negative”.

What about the mutagenic call (Test System: AMES SALMONELLA TYPHIMURIUM, Strain/Indicator: TA1537, Metabolic Activation: NONE, Method: PREINCUBATION) of the same compound?
Its mutagenic call is “inactive; negative”.

And the mutagenic call (Test System: AMES SALMONELLA TYPHIMURIUM, Strain/Indicator: TA1537, Metabolic Activation: RAT, LIVER, S-9, AROCLOR 1254 (10%), Method: PREINCUBATION)?
The mutagenic call was “inactive; negative”.

What about the mutagenic call (Test System: AMES SALMONELLA TYPHIMURIUM, Strain/Indicator: TA1537, Metabolic Activation: RAT, LIVER, S-9, AROCLOR 1254, Method: PREINCUBATION) of the same compound?
Its mutagenic call is “inactive; negative”.

And the mutagenic call [10]?
The mutagenic call was “active; positive”.

Which mutagenic call (Test System: AMES SALMONELLA TYPHIMURIUM, Strain/Indicator: TA104, Metabolic Activation: NONE, Method: STANDARD PLATE) does the source give for `C=C1C(=O)O[C@@H]2C[C@]3(C)[C@@H](CCC(C)=O)[C@@H]3C[C@H]12` here?
Its mutagenic call is “inactive; negative”.

What about the mutagenic call (Test System: AMES SALMONELLA TYPHIMURIUM, Strain/Indicator: TA104, Metabolic Activation: RAT, LIVER, S-9, Method: STANDARD PLATE) of the same compound?
Its mutagenic call is “inactive; negative”.

What does the source list for `CCN(CC)c1ccc(N)cc1`?
mutagenic call (End Point: IN VITRO CHROMOSOMAL ABERRATIONS, Test System: CHINESE HAMSTER LUNG CELLS (CHL), Metabolic Activation: RAT, LIVER, S-9, KC-400): inactive; negative; mutagenic call (End Point: IN VITRO CHROMOSOMAL ABERRATIONS, Test System: CHINESE HAMSTER OVARY CELLS (CHO), Metabolic Activation: NONE): active; positive (structural changes); mutagenic call (End Point: IN VITRO CHROMOSOMAL ABERRATIONS, Test System: CHINESE HAMSTER OVARY CELLS (CHO), Metabolic Activation: RAT, LIVER, S-9, AROCLOR 1254): inactive; negative; mutagenic call (Test System: AMES SALMONELLA TYPHIMURIUM, Strain/Indicator: TA97, Metabolic Activation: HAMSTER, LIVER, S-9, AROCLOR 1254 (10%), Method: PREINCUBATION): active; positive; mutagenic call [1]: inactive; negative; mutagenic call (Test System: AMES SALMONELLA TYPHIMURIUM, Strain/Indicator: TA97, Metabolic Activation: RAT, LIVER, S-9, AROCLOR 1254 (10%), Method: PREINCUBATION): inactive; negative; mutagenic call [5]: active; positive; mutagenic call [2]: inactive; negative; mutagenic call [6]: active; positive; mutagenic call [7]: active; positive; mutagenic call [3]: inactive; negative; mutagenic call (Test System: AMES SALMONELLA TYPHIMURIUM, Strain/Indicator: TA100, Metabolic Activation: RAT, LIVER, S-9, AROCLOR 1254 (30%), Method: PREINCUBATION): inactive; negative; mutagenic call [8]: inactive; negative; mutagenic call [4]: inactive; negative; mutagenic call [9]: inactive; negative

For `O=C([O-])c1ccc2ccccc2c1.O=C([O-])c1ccc2ccccc2c1.[Pb+2]`, which mutagenic call [10] is on record?
The mutagenic call was “active; positive. reevaluation of results: equivocal”.
